{
  "source": "ChEMBL document CHEMBL3739285",
  "about": "“Fluorescent sulfonamide carbonic anhydrase inhibitors incorporating 1,2,3-triazole moieties: Kinetic and X-ray crystallographic studies” (Bioorg Med Chem, 2016)",
  "key": {"Carbonic anhydrase 12": {"target": "Carbonic anhydrase 12 (Homo sapiens, UniProt O43570)", "sequence (O43570 whole entry)": "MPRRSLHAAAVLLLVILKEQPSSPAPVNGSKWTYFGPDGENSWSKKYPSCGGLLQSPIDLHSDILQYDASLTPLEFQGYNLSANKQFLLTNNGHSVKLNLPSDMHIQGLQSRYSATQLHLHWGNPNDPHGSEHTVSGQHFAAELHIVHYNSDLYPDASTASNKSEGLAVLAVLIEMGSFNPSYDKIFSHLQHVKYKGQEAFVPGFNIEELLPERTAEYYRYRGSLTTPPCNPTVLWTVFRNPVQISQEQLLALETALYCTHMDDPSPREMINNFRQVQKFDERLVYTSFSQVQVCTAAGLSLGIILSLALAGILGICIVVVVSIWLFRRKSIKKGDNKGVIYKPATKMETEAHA", "test": "Inhibition of human carbonic anhydrase-12 preincubated for 15 mins by stopped flow CO2 dehydration method"}, "Carbonic anhydrase 2": {"target": "Carbonic anhydrase 2 (Homo sapiens, UniProt P00918)", "test": "Inhibition of human carbonic anhydrase-2 preincubated for 15 mins by stopped flow CO2 dehydration method"}, "Carbonic anhydrase 1": {"target": "Carbonic anhydrase 1 (Homo sapiens, UniProt P00915)", "sequence (P00915 whole entry)": "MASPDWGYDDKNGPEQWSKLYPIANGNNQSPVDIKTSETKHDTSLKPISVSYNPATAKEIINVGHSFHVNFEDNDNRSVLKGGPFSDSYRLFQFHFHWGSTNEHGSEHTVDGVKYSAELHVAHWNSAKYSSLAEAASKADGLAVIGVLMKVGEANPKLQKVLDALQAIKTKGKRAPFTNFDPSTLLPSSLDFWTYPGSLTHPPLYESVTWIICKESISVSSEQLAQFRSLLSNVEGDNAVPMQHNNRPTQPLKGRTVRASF", "test": "Inhibition of human carbonic anhydrase-1 preincubated for 15 mins by stopped flow CO2 dehydration method"}, "Carbonic anhydrase 14": {"target": "Carbonic anhydrase 14 (Homo sapiens, UniProt Q9ULX7)", "sequence (Q9ULX7 whole entry)": "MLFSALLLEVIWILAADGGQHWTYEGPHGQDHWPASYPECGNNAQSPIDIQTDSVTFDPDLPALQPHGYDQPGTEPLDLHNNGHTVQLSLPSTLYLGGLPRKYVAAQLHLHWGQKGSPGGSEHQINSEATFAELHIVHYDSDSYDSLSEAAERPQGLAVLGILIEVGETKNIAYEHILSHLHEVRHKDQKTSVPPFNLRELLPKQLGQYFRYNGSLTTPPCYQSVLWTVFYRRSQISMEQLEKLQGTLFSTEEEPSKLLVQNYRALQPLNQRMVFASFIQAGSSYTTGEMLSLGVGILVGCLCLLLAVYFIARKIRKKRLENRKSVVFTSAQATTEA", "description": "Inhibition of human carbonic anhydrase-14 preincubated for 15 mins by stopped flow CO2 dehydration method"}, "Homo sapiens": {"organism": "Homo sapiens", "test": "Selectivity ratio of Ki for human carbonic anhydrase-9 to Ki for human carbonic anhydrase-2"}, "Carbonic anhydrase 9": {"target": "Carbonic anhydrase 9 (Homo sapiens, UniProt Q16790)", "description": "Inhibition of human carbonic anhydrase-9 preincubated for 15 mins by stopped flow CO2 dehydration method"}, "[1]": {"test": "Solubility of the compound in phosphate buffer at pH 7.4", "type": "physicochemical"}},
  "data": [
    {"smiles": "CN(C)c1ccc2c(-c3ccc(NC(=S)NCc4cn(-c5cccc(S(N)(=O)=O)c5)nn4)cc3C(=O)O)c3ccc(=[N+](C)C)cc-3oc2c1", "values": [
      {"measurement": "Ki", "setting": "Carbonic anhydrase 12", "result": 0.0107, "unit": "µM"},
      {"measurement": "Ki", "setting": "Carbonic anhydrase 2", "result": 0.088, "unit": "µM"},
      {"measurement": "Ki", "setting": "Carbonic anhydrase 1", "result": 6.42, "unit": "µM"},
      {"measurement": "Ki", "setting": "Carbonic anhydrase 14", "result": 0.0314, "unit": "µM"},
      {"measurement": "Ratio Ki", "setting": "Homo sapiens", "result": 3.62},
      {"measurement": "Ki", "setting": "Carbonic anhydrase 9", "result": 0.0243, "unit": "µM"}
    ]},
    {"smiles": "NS(=O)(=O)c1ccc(CNC(=S)Nc2ccc(-c3c4ccc(=O)cc-4oc4cc(O)ccc34)c(C(=O)O)c2)cc1", "values": [
      {"measurement": "Ki", "setting": "Carbonic anhydrase 12", "result": 0.007, "unit": "µM"},
      {"measurement": "solubility", "setting": "[1]", "result": 1200, "unit": "µg/mL"},
      {"measurement": "Ki", "setting": "Carbonic anhydrase 14", "result": 0.041, "unit": "µM"}
    ]},
    {"smiles": "NS(=O)(=O)c1ccc(-n2cc(CNC(=S)Nc3ccc(-c4c5ccc(=O)cc-5oc5cc(O)ccc45)c(C(=O)O)c3)nn2)cc1", "values": [
      {"measurement": "Ki", "setting": "Carbonic anhydrase 12", "result": 0.0041, "unit": "µM"},
      {"measurement": "Ki", "setting": "Carbonic anhydrase 2", "result": 0.036, "unit": "µM"},
      {"measurement": "solubility", "setting": "[1]", "result": 3800, "unit": "µg/mL"},
      {"measurement": "Ki", "setting": "Carbonic anhydrase 1", "result": 2.56, "unit": "µM"},
      {"measurement": "Ki", "setting": "Carbonic anhydrase 9", "result": 0.0081, "unit": "µM"}
    ]},
    {"smiles": "NS(=O)(=O)c1ccc(CCNC(=S)Nc2ccc(-c3c4ccc(=O)cc-4oc4cc(O)ccc34)c(C(=O)O)c2)cc1", "values": [
      {"measurement": "Ki", "setting": "Carbonic anhydrase 14", "result": 0.033, "unit": "µM"}
    ]},
    {"smiles": "NS(=O)(=O)c1cccc(-n2cc(CNC(=S)Nc3ccc(-c4c5ccc(=O)cc-5oc5cc(O)ccc45)c(C(=O)O)c3)nn2)c1", "values": [
      {"measurement": "Ki", "setting": "Carbonic anhydrase 12", "result": 0.0205, "unit": "µM"},
      {"measurement": "Ki", "setting": "Carbonic anhydrase 2", "result": 0.127, "unit": "µM"},
      {"measurement": "Ki", "setting": "Carbonic anhydrase 1", "result": 7.63, "unit": "µM"},
      {"measurement": "Ki", "setting": "Carbonic anhydrase 9", "result": 0.0369, "unit": "µM"}
    ]}
  ]
}
